Entries after “also recorded” stand apart in the source; their conditions may differ.
What was measured:
[1] = test system: newborn Dutch store piglets subjected to HI; settings: for piglets died post HI: ALLO n=10 (HI complications, 18 h), DFO n=10 (hypovolemic shock, 13 h), 2-IB n=7 (sepsis); for neurologic score / electrical brain activity (aEEG): 3 to 24 h post HI, versus PLAC, repeated ANOVA, all p<0.05
Experimental: Following anaesthesia and instrumentation 37 newborn Dutch store piglets (1–3 days old) were subjected to HI by occluding both common carotid arteries with inflatable cuffs and reducing the fraction of inspired oxygen for 60 min. MRS was performed continuously before, during and up to 3 h after start of HI and repeated at 24 h post HI. During hypoxia FiO2 was reduced>on-line=until PCr/Pi had decreased to at least 25% of baseline values. Immediately after HI the piglets received either placebo (PLAC; n=10), ALLO (20 mg/kg iv; n=10), DFO (10 mg/kg iv; n=10) or 2-IB (150 μM i.v.; n=7). Before HI and from 3 to 24 h post HI the piglets were monitored using aEEG for electrical brain activity determination. A neurologic scoring system was used ranging from 4 (normal) to 0 (flat trace). For 1H-MRS a PRESS sequence with CHESS water suppression was used to define a 1.7 ml periventricular voxel (TR 6 s, TE 144 ms, and nt=32 or 64). 31 P— MRS was done using a 4 cm-diameter surface coil for excitation and detection (TR 10 s, nt=32). Peak amplitudes of PCr, Pi, Lac and NAA were determined with time domain fitting procedures (VARPRO). Paired t-tests were used to compare measurements at 24 h versus baseline; repeated ANOVA served to monitor for trends between treatment groups.

neonatal rats [2] = settings: cited from earlier work
neonatal rats [3] = settings: cited from earlier work; remark: listed apart in the source
[4] = test system: free radical-induced brain damage in newborns; settings: pilot study in newborn babies and experimental studies; cited from earlier work
neuronal NOS = settings: injectable intraperitoneally; cited from earlier work
newborn piglets = settings: cited from earlier work
[5] = test system: brain regions at risk after HI (hippocampus, cortex, striatum and cerebellum); assay: Histological analysis and nitrotyrosylation immunohistochemistry of brain at 24 h post HI; assay type: in vivo, piglet
crossbred piglets = assay: Postnatal growth experiments in newborn piglets; assay type: in vivo, piglet
Experimental: A study in newborn piglets was performed to identify the potential effects of 2-iminobiotin on postnatal growth. Data from 138 crossbred piglets (originating from 28 litters) were collected on a commercial, Dutch pig farm over the period from 21 Jul. 2001 to 6 May 2003.

[6] = 24 h post HI versus baseline, ALLO 20 mg/kg iv, DFO 10 mg/kg iv, 2-IB 150 μM i.v.
[7] = Least Square Means, total 1.1 mg/kg in 24 h after birth, n=67
[8] = during the first 10 days of life, n=67

SMILES: CC(=O)N(O)CCCCCNC(=O)CCC(=O)N(O)CCCCCNC(=O)CCC(=O)N(O)CCCCCN [DFO, deferoxamine, reference compound]
- piglets died post HI [1]: 1 piglet

SMILES: N=C(N)NN [aminoguanidine]
- infarct volumes (neonatal rats [2]): reduced infarct volumes

SMILES: COC(=O)[C@@H](N)CCCNC(=N)N[N+](=O)[O-] [L-NAME, L-nitro-arginine methyl ester]
- neuroprotection (neonatal rats [3]): neuroprotective

SMILES: Oc1ncnc2[nH]ncc12 [ALLO, allopurinol, reference compound]
- neurologic score / electrical brain activity (aEEG) [1]: significant difference
- PCr/Pi (cerebral energy status) [1, 6]: prevented partly
- piglets died post HI [1]: 1 piglet
- free radical-induced brain damage in newborns [4]: reduce free radical-induced brain damage in newborns to some extend

SMILES: O=[N+]([O-])c1cccc2cn[nH]c12 [7-nitroindazole]
- apoptosis (neuronal NOS): effective in reducing apoptosis
- levels of citrulline (neuronal NOS): reducing the levels of citrulline

SMILES: N=C(NCCC[C@H](N)C(=O)O)N[N+](=O)[O-] [NNLA, N^G-nitro-L-arginine]
- cerebral energy status during and after hypoxia-ischemia (newborn piglets): compromised

SMILES: N=C1N[C@H]2[C@H](CS[C@H]2CCCCC(=O)O)N1 [2-IB, 2-iminobiotin]
- neurologic score / electrical brain activity (aEEG) [1]: significant difference; also recorded: preserved electrical brain activity
- Lac/NAA [1, 6]: identical to baseline values; also recorded: prevented increment
- PCr/Pi (cerebral energy status) [1, 6]: identical to baseline values; also recorded: preserved completely
- piglets died post HI [1]: 1 piglet
- more effective than treatment with allopurinol and/or deferoxamine ([1]; in vivo studies involving piglets, versus allopurinol and/or deferoxamine): about 25%
- more effective than placebo treatment in preventing and/or treating the effects ([1]; in vivo studies involving piglets, versus placebo): about 60%
- alive cells in brain regions at risk after HI ([5]; histology): more alive cells
- necrosis ([5]; histology): less necrosis
- structural architecture ([5]; histology): better preserved structural architecture
- nitrotyrosylation staining in the affected areas ([5]; immunohistochemistry): no staining; also recorded: less nitrotyrosylation staining
- Growth at 6 weeks (crossbred piglets; [7]): 250 gram/day
- Growth at 10 days (crossbred piglets; [7]): 208 gram/day
- Growth at weaning (crossbred piglets; [7]): 248 gram/day
- piglets died (number) (crossbred piglets; [8]): 9 piglets
- piglets died (percentage of group) (crossbred piglets; [8]): 13%
- Pathology and histology: adverse effects of treatment (crossbred piglets; in vivo): no adverse effects

— patent US7087633B2, “Method for treating perinatal asphyxia in a human or animal neonate” (Universitair Medisch Centrum, priority 2000, dated 2006)
